According to US20240182941A1, “XYLOSYLATED STEVIOL GLYCOSIDES AND ENZYMATIC METHODS FOR PRODUCTION” (CARGILL, INCORPORATED, priority 2021, published 2024):
“And” between values parts separate entries of the source, which are not always exact repeats. Equal values may be shown once.

Columns and labels:
[1] = cited from earlier work
[2] = test system: purified protein of SEQ ID NO:1; test: Time course of glycosylation of Reb A using SEQ ID NO:1 and activated sugars; format: biochemical, Oryza sativa Japonica Group
Method: (§1) Bioconversion reaction was carried out in a total of 100 uL sealed vials containing the Tris buffer, 0.1 μmoles of SG acceptor, 0.2 μmoles of activated sugar donor, 1 μmoles of sucrose and 2 ug protein of the enzymes. To each vial, buffer, sucrose, UDP-sugar donor, and SG acceptor were added in that order before finally the enzymes were added. For each SG donor, a control was included to contain the same amounts of sucrose and enzymes without UDP-sugar donors. After hand mixing, the vials were placed in a temperature-controlled shaker set at 30C and 100 rpm in rotating motion for 96 hours (4 days).
(§2) After 4 days of reaction, 0.9 mL of 80% acetonitrile was added to each vial and the resulting samples were analyzed in LC/MS. Xylose modification of the -19C(O)-β-Glc residue was confirmed.
The ability of SEQ ID NO:1 to glycosylate Reb A with different activated sugars used at different concentrations was examined, with the reaction products formed being measured over the course of the reaction.
Purified protein of SEQ ID NO:1 was used with UDP-glucose, UDP-xylose, and UDP-rhamnose di-sodium salts, and the reagents and reaction conditions were as described in Example 1.

[3] = test system: glycosyltransferase polypeptide of SEQ ID NO:1; test: SG bioconversion with UDP-xylose using enzyme of SEQ ID NO:1; format: biochemical, Oryza sativa Japonica Group; settings: enzyme SEQ ID NO:1, 2 ug protein, 96 hours, 30C, runs 1 and 2
Method: (§3) Six steviolglycoside (SG) ‘acceptors’ Reb A, B, C, D, M and stevioside were tested using 2 glucosyltransferase enzymes (SEQ ID NO:1 and UGT76G1) known to play key roles in SG biosynthesis in stevia leaves and activated xylose (UDP-xylose).
(§4) UDP-xylose (98.9% purity) and UDP-rhamnose di-sodium salt (95% purity) were purchased from BOC Sciences. The activated sugar donors were prepared to 10 mM concentration with 0.05 M tris buffer and stored according to manufacturers' recommendations before use.
(§5) Enzyme of SEQ ID NO:1 and UGT76G1 enzyme were prepared in E. coli host cells as tagged proteins with expression induced by a chemical inducer. Following induction, the cells were incubated overnight and harvested. The cells were then lysed (either through sonication, mechanical disruption or chemical lysis) and the proteins purified through chromatography and stored frozen at −20C till use. Enzyme activities were confirmed using UDP-glucose in a preliminary test. Frozen enzyme solution was thawed right before use and returned to frozen storage after use.
(§6) SG materials were obtained from various sources with 90%+ purities. All SG materials were prepared at 20 mM with 90% DMSO and stored at ambient temperature. Final DMSO concentration in the reaction mixture was 4.5%.
(§7) Sucrose, previously shown to have a stabilizing effect on the bioconversion reaction, was prepared at 0.1 M with 0.05 M tris buffer.
(§8) Tris (tris(hydroxymethyl)aminomethane) buffer was prepared at 0.05 M, pH 7.3 and contained 3 mM each of MgCl2 and MnCl2 as co-factors.
as §1, §2

UGT76G1 = target: T1, UGT76G1 (Stevia rebaudiana, UniProt Q6VAB4); test: SG bioconversion with UDP-xylose using UGT76G1; format: biochemical; settings: enzyme UGT76G1, 2 ug protein, 96 hours, 30C, runs 1 and 2
T1 construct: unspecified tag; made in house; host or cells: E. coli
T1 sequence (Q6VAB4 1-458): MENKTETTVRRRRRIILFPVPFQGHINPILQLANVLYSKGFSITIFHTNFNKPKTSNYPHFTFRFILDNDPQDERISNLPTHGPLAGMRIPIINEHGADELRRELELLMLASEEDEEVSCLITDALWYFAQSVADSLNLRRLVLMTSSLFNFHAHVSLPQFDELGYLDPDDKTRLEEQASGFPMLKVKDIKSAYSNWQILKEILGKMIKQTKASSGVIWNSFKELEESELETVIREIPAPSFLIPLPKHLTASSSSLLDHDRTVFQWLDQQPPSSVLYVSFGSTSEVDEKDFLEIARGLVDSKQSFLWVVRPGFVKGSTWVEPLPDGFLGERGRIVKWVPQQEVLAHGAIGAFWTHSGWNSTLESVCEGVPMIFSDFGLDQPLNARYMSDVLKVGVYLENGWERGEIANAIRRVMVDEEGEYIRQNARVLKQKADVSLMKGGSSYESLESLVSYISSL
Method: as §3, §4, §5, §6, §7, §8, §1, §2

Molecule: C=C1C[C@@]23CC[C@H]4[C@@](C)(CCC[C@@]4(C)C(=O)O[C@@H]4O[C@H](CO)[C@@H](O)[C@H](O)[C@H]4O)[C@@H]2CC[C@]1(O[C@@H]1O[C@H](CO)[C@@H](O)[C@H](O[C@@H]2O[C@H](CO)[C@@H](O)[C@H](O)[C@H]2O)[C@H]1O[C@@H]1O[C@H](CO)[C@@H](O)[C@H](O)[C@H]1O)C3 [Reb A, rebaudioside A]
- sweetness relative to sucrose ([1]; times sweeter than sucrose): 250-300 times
- glucosylation and xylosylation plateaued after ([2]; 1 mM activated sugars): 20 min
- Rhamnosylation using UDP-rhamnose compared with glucosylation and xylosylation ([2]; 2 mM activated sugars): significantly lower
- glucosylation and xylosylation plateaued after ([2]; 2 mM activated sugars): 20 min
- % Reb A bioconversion ([2]; UDP-Glucose (1 mM), 0 hours): 0%
- % Reb A bioconversion ([2]; UDP-Glucose (1 mM), 18 hours): 68.47%
- % Reb A bioconversion ([2]; UDP-Glucose (1 mM), 48 hours): 68.6%
- % Reb A bioconversion ([2]; UDP-Glucose (1 mM), 96 hours): 68.1%
- % Reb A bioconversion ([2]; UDP-Glucose (2 mM), 0 hours): 0%
- % Reb A bioconversion ([2]; UDP-Glucose (2 mM), 18 hours): 84.93%
- % Reb A bioconversion ([2]; UDP-Glucose (2 mM), 48 hours): 83.9%
- % Reb A bioconversion ([2]; UDP-Glucose (2 mM), 96 hours): 82.1%
- % Reb A bioconversion ([2]; UDP-Rhamnose (2 mM), 0 hours): 0%
- % Reb A bioconversion ([2]; UDP-Rhamnose (2 mM), 18 hours): 14.7%
- % Reb A bioconversion ([2]; UDP-Rhamnose (2 mM), 48 hours): 25%
- % Reb A bioconversion ([2]; UDP-Rhamnose (2 mM), 96 hours): 30%
- % Reb A bioconversion ([2]; UDP-Xylose (1 mM), 0 hours): 0%
- % Reb A bioconversion ([2]; UDP-Xylose (1 mM), 18 hours): 60.09%
- % Reb A bioconversion ([2]; UDP-Xylose (1 mM), 48 hours): 60.39%
- % Reb A bioconversion ([2]; UDP-Xylose (1 mM), 96 hours): 60.66%
- % Reb A bioconversion ([2]; UDP-Xylose (2 mM), 0 hours): 0%
- % Reb A bioconversion ([2]; UDP-Xylose (2 mM), 18 hours): 83.26%
- % Reb A bioconversion ([2]; UDP-Xylose (2 mM), 48 hours): 83.5%
- % Reb A bioconversion ([2]; UDP-Xylose (2 mM), 96 hours): 82.33%

Molecule: C=C1C[C@@]23CC[C@H]4[C@@](C)(CCC[C@@]4(C)C(=O)O)[C@@H]2CC[C@]1(O[C@@H]1O[C@H](CO)[C@@H](O)[C@H](O[C@@H]2O[C@H](CO)[C@@H](O)[C@H](O)[C@H]2O)[C@H]1O[C@@H]1O[C@H](CO)[C@@H](O)[C@H](O)[C@H]1O)C3 [Reb B]
- % SG bioconversion with UDP-xylose [3]: 0%
- % SG bioconversion with UDP-xylose (UGT76G1): 0%

Molecule: C=C1C[C@@]23CC[C@H]4[C@@](C)(CCC[C@@]4(C)C(=O)O[C@@H]4O[C@H](CO)[C@@H](O)[C@H](O)[C@H]4O[C@@H]4O[C@H](CO)[C@@H](O)[C@H](O)[C@H]4O)[C@@H]2CC[C@]1(O[C@@H]1O[C@H](CO)[C@@H](O)[C@H](O[C@@H]2O[C@H](CO)[C@@H](O)[C@H](O)[C@H]2O)[C@H]1O[C@@H]1O[C@H](CO)[C@@H](O)[C@H](O)[C@H]1O)C3 [Reb D, Rebaudioside D]
- % SG bioconversion with UDP-xylose [3]: ~10%
- % SG bioconversion with UDP-xylose (UGT76G1): 0%

Molecule: C=C1C[C@@]23CC[C@H]4[C@@](C)(CCC[C@@]4(C)C(=O)O[C@@H]4O[C@H](CO)[C@@H](O)[C@H](O[C@@H]5O[C@H](CO)[C@@H](O)[C@H](O)[C@H]5O)[C@H]4O[C@@H]4O[C@H](CO)[C@@H](O)[C@H](O)[C@H]4O)[C@@H]2CC[C@]1(O[C@@H]1O[C@H](CO)[C@@H](O)[C@H](O[C@@H]2O[C@H](CO)[C@@H](O)[C@H](O)[C@H]2O)[C@H]1O[C@@H]1O[C@H](CO)[C@@H](O)[C@H](O)[C@H]1O)C3 [Reb M, Rebaudioside M]
- % SG bioconversion with UDP-xylose [3]: 0%
- % SG bioconversion with UDP-xylose (UGT76G1): 0%

Molecule: C=C1C[C@@]23CC[C@H]4[C@@](C)(CCC[C@@]4(C)C(=O)O[C@@H]4O[C@H](CO)[C@@H](O)[C@H](O)[C@H]4O)[C@@H]2CC[C@]1(O[C@@H]1O[C@H](CO)[C@@H](O)[C@H](O)[C@H]1O[C@@H]1O[C@H](CO)[C@@H](O)[C@H](O)[C@H]1O)C3 [Stevioside, stevioside]
- % SG bioconversion with UDP-xylose [3]: 85.9% and 90.2%
- % SG bioconversion with UDP-xylose ([3]; listed as stevioside): very high conversion
- % SG bioconversion with UDP-xylose (UGT76G1): 40.5% and 39.0%

Molecule: rebaudioside C [Reb C]
- sweetness relative to glucose ([1]; times sweeter than glucose): 30 times
- % SG bioconversion with UDP-xylose (UGT76G1): 11.0% and 10.1%
